In patent US20240382564A1, “Methods and Compositions for Treating Muscular Dystrophy and Memory Impairment” (Allysta Pharmaceuticals, Inc., priority 2023, published 2024):
Where no end group is shown, it is not given here. [ ]: non-standard residue; d: D form. Nva = CCC[C@H](N)C(=O)O

Legend:
Assay type in all cases: in vivo, mouse
[1] = tested on: D2.mdx mice; experiment: Fibrosis by Masson's trichrome staining of muscle sections after ALY688 treatment
Procedure: D2.mdx mice were treated with ALY688 at two different dosages; high dose (HD; 15 mg/kg body weight/day) or low dose (LD; 3 mg/kg body weight/day) dissolved in saline. A separate group of mice were treated with saline alone (VEH, vehicle). Treatment was provided via subscapular subcutaneous injections from 7 days of age to 28-30 days. […] At 28-30 days of age, mice were anaesthetized with isoflurane vaporized in medical air (21% oxygen) at a 2 L/min flow rate. Due to tissue limitations in limb muscle, certain measures were performed separately in tibialis anterior and quadriceps across several phases of breeding. […]
Samples collected were cut into 8 µm thick serial cross sections with a cryostat (Thermo Fisher Scientific; Kalamazoo, MI, United States;) maintained at −20° C. on Fisherbrand Superfrost Plus slides (Thermo Fisher Scientific). […] Centralized nuclei, a marker of regenerating fibres, was analyzed by selecting five evenly spaced images throughout the muscle and averaging the result. Areas of damage (fibres with fragmented sarcoplasm and immune cell infiltration) were expressed as a percentage of the entire muscle section. Images were taken using EVOS M7000 imager (Thermo Fisher Scientific) using 20× magnification and analyzed using ImageJ (http://imagej.nih.gov/ij/). […] These images were then analyzed with ImageJ for minimal Feret's diameter as an index of muscle atrophy.

[2] = tested on: D2.mdx mice; experiment: Muscle cytokine protein profiling (LEGENDplex); settings: HD
Procedure: (§1) D2.mdx mice were treated with ALY688 at two different dosages; high dose (HD; 15 mg/kg body weight/day) or low dose (LD; 3 mg/kg body weight/day) dissolved in saline. A separate group of mice were treated with saline alone (VEH, vehicle). Treatment was provided via subscapular subcutaneous injections from 7 days of age to 28-30 days. […] At 28-30 days of age, mice were anaesthetized with isoflurane vaporized in medical air (21% oxygen) at a 2 L/min flow rate. Due to tissue limitations in limb muscle, certain measures were performed separately in tibialis anterior and quadriceps across several phases of breeding. Following the treatment protocol, in situ quadriceps force assessments were then performed in one limb followed by removal of the quadriceps from the other limb for mitochondrial assessments, diaphragm for in vitro force assessments and finally other tissues for further processing as described below. Muscle and visceral organs weights were normalized to tibia length. Tissue collected from the first phase were utilized in force, histological, mitochondrial measures (respiration, mH2O2 and calcium retention capacity) and western analyses (diaphragm and quadriceps only). A second phase was then collected and utilized for cytokine profiling, qPCR analyses and additional westerns (TA only). Serum was collected from both phase 1 and 2 and utilized for serum CK analysis. All animals were utilized in in vivo functional assays (grip strength, cage hang time and voluntary wheel running).
Tibialis anterior and diaphragm samples were homogenized in lysis buffer containing (in mM) (20 Tris/HCl, 150 NaCl, 1 EDTA, 1 EGTA, 1% Triton X-100, 2.5 Na4O7P2, 1 Na3VO4, pH 7.0) supplemented with protease (Roche) and phosphatase inhibitors (Sigma). Samples were diluted two-fold in the assay buffer before loading to the plates with beads. According to the manufacturer's instructions, levels of TGF-β, TNF-α, IL-1β, IL-6 and IL-10 in the homogenates were measured using LEGENDplex™ Mouse Custom Panel. Assay was performed in the Attune NxT flow cytometer (Thermo Fisher). The FCS files generated on the flow cytometer were analyzed using the LEGENDplex™ cloud-based analysis software.

[3] = tested on: D2.mdx mice; experiment: Mitochondrial H2O2 emission in permeabilized muscle fibre bundles
Procedure: as §1
The quadriceps from the non-stimulated limb and the diaphragm were collected and quickly placed in a buffer containing (in mM) 50 MES Hydrate, 7.23 K2EGTA, 2.77 CaK2EGTA, 20 imidazole, 0.5 dithiothreitol, 20 taurine, 5.77 ATP, 15 PCr, and 6.56 MgCl2·6H2O (pH 7.1). Both muscles were trimmed of connective tissue and fat and separated along the longitudinal axis into small bundles weighing approximately 1.0-2.5 mg wet weight for respiration and mH2O2 and 0.5-1.5 mg wet weight for calcium retention capacity. Bundles were permeabilized with […] saponin (Sigma Aldrich; St. Louis, MI, USA) in BIOPS on a platform rotor for 30 minutes at 4° C. The permeabilized bundles were then transferred to wash buffers to remove saponin as follows: MiRO5 for mitochondrial respiration, Buffer Z for mitochondrial H2O2 emission (mH2O2), and Buffer Y for calcium retention capacity. The composition of each buffer has been described previously. Fibres prepared for pyruvate-supported mitochondrial H2O2 emission (mH2O2) were permeabilized in the presence of 35 μM 2,4-dinitrochlorobenzene (CDNB) to deplete glutathione and enhance the detection of mH2O2. All bioenergetic assays were performed within 4 hours of washing to maintain fibre viability.
Briefly, mH2O2 was determined spectrofluorometrically (QuantaMaster 40, HORIBA Scientific, Irvine, CA, USA) utilizing Buffer Z containing 10 μM Amplex Ultra Red (Life Technologies; Carlsbad, CA, USA), 1 U/mL horseradish peroxidase, 1 mM EGTA, 40 U/mL Cu/Zn SOD1, 5 μM blebbistatin and 20 mM Cr. […] The ability of ADP to suppress mH2O2 was assessed with a titration of physiological concentrations (25, 100) and saturating for oxidant generation (500 μM). […] The rate of mH2O2 emission was calculated using a standard curve under the same assay conditions and then normalized to fibre bundle dry weight.

[4] = tested on: D2.mdx mice; experiment: Cardiac (RV, LV) mitochondrial H2O2 emission and ADP-stimulated respiration
Procedure: D2.mdx mice were treated daily subcutaneously beginning at 7 days of age for 3 weeks at 1 μL/g with ALY688 at 15 mg/kg body weight (high dose drug; HD) or with a saline (VEH) control. Mice were compared to age-matched wildtypes (DBA/2J). […] However, ADP-stimulated respiration supported by pyruvate was increased in VEH (36%) and HD (46%) vs wildtype whereas HD had no effect vs VEH.

## [dN]IP[Nva]LY[dS]FA[dS]-NH2 [ALY688]
[1]; diaphragm, both doses (LD 3, HD 15 mg/kg/day s.c., 7 to 28-30 days of age)
  attenuation of diaphragm fibrosis (collagen content): 66.7-67.6%
[1]; tibialis anterior
  partial prevention of fibrosis and atrophy in tibialis anterior: not observed
[2]; diaphragm
  IL-6 protein content: 69.1 % increase vs VEH
  IL-10 protein content: not different between groups
  TGF-β protein content: 20.3 % increase vs VEH
  TNF-α protein content: not different between groups
[2]; tibialis anterior, VEH 40.6 pg/ml, not detectable in wildtype
  prevention of the increase in TNF-α protein content: 83.9%
[3]; diaphragm, HD
  mitochondrial responsiveness to ADP (pyruvate/malate-supported mH2O2 emission): completely preserved
[3]; diaphragm, HD, across ADP concentrations
  reduction of pyruvate/malate-supported mH2O2 emission: 8.7 to 70.7%
[3]; diaphragm, absence and presence of creatine, LD and HD
  succinate-induced mH2O2 emission: no effect of either drug dose
[3]; quadriceps, both doses, absence and presence of creatine
  attenuation of succinate-induced mH2O2 emission: 11.3 to 73.6%
[3]; quadriceps, both doses, across ADP concentrations
  attenuation of pyruvate/malate-supported mH2O2 emission: 45.9 to 62.3%
[4]; LV
  ADP-stimulated respiration supported by pyruvate, HD vs VEH: no effect
[4]; LV, HD, VEH 36%
  ADP-stimulated respiration supported by pyruvate, increase vs wildtype: 46%
[4]; LV, between groups
  mH2O2 emissions supported by pyruvate: not different between groups
[4]; RV, HD, VEH −49% vs wildtype
  ADP-stimulated respiration supported by pyruvate: completely rescued
[4]; RV, HD, range of [ADP], VEH +88% vs wildtype
  mH2O2 emission stimulated by pyruvate: did not change
